Measured values as given in ChEMBL document CHEMBL4616598 (Bioorg Med Chem, 2020).

Columns and labels:
Homo sapiens = organism: Homo sapiens; experiment: Selectivity ratio of Ki for displacement of [3H]-5-carboxamidotryptamine from human 5-HT1A receptor expressed in HEK293T cell membranes to Ki for displacement of [3H]-5-carboxamidotryptamine from human 5-HT7 receptor expressed in HEK293 cell membranes
[1] = target: 5-hydroxytryptamine receptor 7 (Homo sapiens, UniProt P34969); experiment: Displacement of [3H]-5-carboxamidotryptamine from human 5-HT7A receptor expressed in HEK293 cell membranes incubated for 90 mins by scintillation counting method
[2] = target: T1, 5-hydroxytryptamine receptor 1A (Homo sapiens, UniProt P08908); experiment: Displacement of [3H]-5-carboxamidotryptamine from human 5-HT1A receptor expressed in HEK293T cell membranes incubated for 90 mins by scintillation counting method; design: species or system HEK-293T
T1 sequence (P08908 whole entry): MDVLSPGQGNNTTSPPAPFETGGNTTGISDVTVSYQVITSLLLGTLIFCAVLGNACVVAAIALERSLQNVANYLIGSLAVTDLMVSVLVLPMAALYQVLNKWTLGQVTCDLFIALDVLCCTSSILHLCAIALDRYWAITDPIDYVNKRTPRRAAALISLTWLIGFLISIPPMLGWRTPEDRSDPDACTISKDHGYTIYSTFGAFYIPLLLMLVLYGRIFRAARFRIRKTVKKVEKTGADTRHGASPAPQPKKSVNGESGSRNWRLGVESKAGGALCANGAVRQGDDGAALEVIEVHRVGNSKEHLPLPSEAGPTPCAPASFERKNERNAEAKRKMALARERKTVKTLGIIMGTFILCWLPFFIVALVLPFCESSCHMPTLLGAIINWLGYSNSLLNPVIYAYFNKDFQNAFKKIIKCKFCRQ

Sequence of 5-hydroxytryptamine receptor 7 (P34969 whole entry): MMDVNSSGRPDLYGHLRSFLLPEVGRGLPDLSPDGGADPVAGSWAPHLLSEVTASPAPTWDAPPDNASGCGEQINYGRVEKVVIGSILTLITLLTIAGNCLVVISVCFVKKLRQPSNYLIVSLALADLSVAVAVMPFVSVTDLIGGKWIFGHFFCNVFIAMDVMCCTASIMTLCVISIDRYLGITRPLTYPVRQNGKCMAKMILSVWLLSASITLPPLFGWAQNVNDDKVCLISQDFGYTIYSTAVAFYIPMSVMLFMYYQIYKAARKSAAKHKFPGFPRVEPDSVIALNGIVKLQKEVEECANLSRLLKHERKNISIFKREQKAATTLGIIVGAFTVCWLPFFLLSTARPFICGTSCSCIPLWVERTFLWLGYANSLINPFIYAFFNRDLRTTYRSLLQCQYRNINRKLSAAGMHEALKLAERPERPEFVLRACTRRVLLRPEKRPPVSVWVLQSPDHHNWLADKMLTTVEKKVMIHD

SMILES	Ratio Ki (Homo sapiens)	Ki [1]	Ki [2]
CCCN(CCC)[C@H]1CCc2c(cccc2-c2ccccc2)C1	0.17		
CN(C)[C@@H]1CCc2c(cccc2-c2cccs2)C1	0.83	180 nM	150 nM
CN(C)[C@H]1CCc2c(cccc2-c2cc(C(F)(F)F)cc(C(F)(F)F)c2)C1	2.5		2230 nM
CN(C)[C@@H]1CCc2c(cccc2-c2cccn2C)C1	0.92	600 nM	
CN(C)[C@H]1CCc2c(cccc2-c2ccc(Cl)cc2)C1	1.2	160 nM	190 nM
CN(C)C1CCc2c(cccc2C2CCCC2)C1 (racemic)	0.41		98 nM
CN(C)C1CCc2c(cccc2-c2cccc(Cl)c2)C1 (racemic)	3.2	26 nM	82 nM
CN(C)[C@H]1CCc2c(cccc2-c2ccco2)C1	0.46	71 nM	
CN(C)[C@H]1CCc2c(cccc2-c2cccn2C)C1	0.72	33 nM	24 nM
CN(C)[C@@H]1CCc2c(cccc2-c2ccccc2)C1	0.21	5200 nM	1100 nM
CN(C)C1CCc2c(cccc2-c2ccc(F)cc2)C1 (racemic)	0.26	117 nM	30 nM
CN(C)[C@@H]1CCc2c(cccc2-c2cc(C(F)(F)F)cc(C(F)(F)F)c2)C1		> 10000 nM	> 10000 nM
CN(C)C1CCc2c(cccc2-c2cc(Cl)cc(Cl)c2)C1 (racemic)	5.5	400 nM	2200 nM
CN(C)C1CCc2c(cccc2-c2c3ccccc3cc3ccccc23)C1 (racemic)	3.1	450 nM	1400 nM
CN(C)[C@H]1CCc2c(cccc2-c2ccccc2Cl)C1	7.6		
CN(C)[C@@H]1CCc2c(cccc2-c2ccccc2F)C1		740 nM	
CN(C)C1CCc2c(cccc2-c2cc(F)cc(F)c2)C1 (racemic)	1.3		230 nM
CN(C)C1CCc2c(cccc2-c2cncc3ccccc23)C1 (racemic)	6.7	97 nM	650 nM

SMILES	Ratio Ki (Homo sapiens)	Ki [1]	Ki [2]
CCCN(CCC)[C@H]1CCc2c(cccc2-c2ccccc2F)C1	0.34	5.3 nM	1.8 nM
CN(C)[C@H]1CCc2c(cccc2-c2ccccc2)C1	0.66	9.5 nM	
Cc1nn(C)c(C)c1-c1cccc2c1CC[C@H](N(C)C)C2	20		
COc1cccc(-c2cccc3c2CCC(N(C)C)C3)c1 (racemic)	2.6	28 nM	73 nM
CN(C)[C@@H]1CCc2c(cccc2-c2ccc(Cl)cc2)C1	0.23	84 nM	19 nM
CN(C)[C@@H]1CCc2c(cccc2-c2ccco2)C1	2.2	2600 nM	5600 nM
CN(C)C1CCc2c(cccc2-c2ccccc2Cl)C1 (racemic)	3.3	4.2 nM	14 nM
CCCN(CCC)[C@@H]1CCc2c(cccc2-c2ccccc2)C1	1.1	190 nM	210 nM
CCCN(CCC)[C@H]1CCc2c(cccc2-c2ccccc2Cl)C1	0.11		0.64 nM
Fc1ccccc1-c1cccc2c1CCC(N1CCCC1)C2 (racemic)	0.025		
CN(C)[C@H]1CCc2c(cccc2-c2cccc3ccccc23)C1	12		
CN(C)C1CCc2c(cccc2-c2cccc3ccccc23)C1 (racemic)	5.9	22 nM	130 nM
CCCN(CCC)[C@@H]1CCc2c(cccc2-c2ccccc2F)C1	0.12	740 nM	92 nM
CCCN(CCC)[C@@H]1CCc2c(cccc2-c2ccccc2Cl)C1	0.33	390 nM	130 nM
CN(C)[C@H]1CCc2c(cccc2-c2cccs2)C1	0.26	17 nM	4.5 nM
CN(C)C1CCc2c(cccc2-c2cccc(F)c2)C1 (racemic)	1.3	18 nM	23 nM
CN(C)C1CCc2c(cccc2-c2ccc(F)cc2Cl)C1 (racemic)	2.1	16 nM	33 nM
CN(C)C1CCc2c(cccc2-c2cccc(C(F)(F)F)c2)C1 (racemic)	2.9		180 nM
